Data from patent US20170156315A1, “METHODS AND COMPOSITIONS OF GRANULE FORMULATIONS” (AgroFresh Inc., priority 2010, published 2017).
Where “and” joins values, the source holds several entries; their conditions need not be identical. Equal values may be shown once.

Test system: rice plants
Experiment: Treatment of rice plants in open fields, yield
Type: in vivo
Conditions: rice field trial, single application of 50 g a.i./hectare 1-MCP with sample 7-3
From the text: Assessment of Improvement to Crop Yield—Each treated plot is compared to an appropriate untreated control plot. The outcome is reported as “DY %” (Delta Yield Percent), which is defined as follows:
where YT=yield of the treated plot, and where YU=yield of the untreated plot. For example, DY of 10% means the treated plot has yield that is 10% higher than the untreated plot. Negative Delta Yield means that the treated rice has lower yield than the untreated crop.
Granule formulations of samples 7-3 and 7-4 are used to treat rice plants in open fields. Typical amount of 1-MCP treated range from 10 g active ingredient (a.i.)/hectare (or 4 g a.i./acre) to 100 g a.i./hectare (or 40 g a.i/acre).
Optimum phonological stages of the rice plants range from maximum tillering through grain filling (for example at least one of: meiosis, complete open of flower, and grain filling). Typically only a single treatment of 1-MCP is performed before harvest, but multiple treatments of 1-MCP before harvest can also be performed. Treatment(s) of 1-MCP on rice plants show yield increase ranging from 14% to 28%, depending on the amount of 1-MCP and stage of treatment(s). Data of a field trial using single application of 50 g a.i./hectare 1-MCP with sample 7-3 (a granule formulation containing 1% 1-MCP) are shown in Table 9

Question: Which results are given for CC1=CC1 [Sample 1-MCP, 1-methylcyclopropene]?
Answer: Yield (kg/ha) (individual treatments 8-1 to 8-4): 7340 kg/ha and 7450 kg/ha and 7865 kg/ha and 7715 kg/ha; Mean (kg/ha) (mean of treatments 8-1 to 8-4): 7592.5 kg/ha
